Where a name gives a salt, the structure may show the parent alone.

One assay deals with T1, DltA enzyme (Streptococcus agalactiae serotype III, UniProt Q8VM67).
T1 construct: His-tag (from pET100 vector) (N); made in house; host or cells: E. coli BL21 (DE3) Star
T1 sequence (Q8VM67 1-511): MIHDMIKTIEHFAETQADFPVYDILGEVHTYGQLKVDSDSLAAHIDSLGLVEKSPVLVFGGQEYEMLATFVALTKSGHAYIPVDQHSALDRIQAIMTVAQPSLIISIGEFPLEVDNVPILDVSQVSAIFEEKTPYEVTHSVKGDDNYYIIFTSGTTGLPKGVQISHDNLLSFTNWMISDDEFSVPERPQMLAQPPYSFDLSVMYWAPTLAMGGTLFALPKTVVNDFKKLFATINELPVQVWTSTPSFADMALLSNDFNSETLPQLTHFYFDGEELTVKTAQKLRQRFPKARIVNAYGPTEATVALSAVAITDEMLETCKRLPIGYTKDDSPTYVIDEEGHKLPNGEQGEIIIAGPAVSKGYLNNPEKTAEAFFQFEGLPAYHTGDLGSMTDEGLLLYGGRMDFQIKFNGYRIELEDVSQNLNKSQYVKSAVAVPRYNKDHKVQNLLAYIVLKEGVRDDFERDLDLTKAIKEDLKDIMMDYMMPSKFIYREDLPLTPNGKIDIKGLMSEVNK
Kind of assay: DltA HTS assays (luminescent / fluorescent), inhibition of DltA enzymatic activity in vitro. To be noted: IC50 (μM), Table 1; DltA inhibition, HTS assays of method 1. Format: biochemical, S. agalactiae. An excerpt: The compounds effect on DltA enzyme has been based on the measure of the inhibition of DltA activity in vitro.
To this end, a recombinant protein Dlta was expressed and purified after cloning of the gene of S. agalatiae as described below:
Methods 1: DltA HTS Assays
The assay described below makes use of dithiothreitol (DTT) instead of DltC as reactive thiol in the catalyzed reaction. In fact, the inventors have shown that DTT, but also Coenzyme A and N-Acetylcysteamine are all thiols able to replace efficiently DltC. In addition, contrary to the prior art, radioactivity is not used: all the assays are based either on luminescent ATP detection, or on fluorescent AMP detection. They are easily amenable to miniaturized formats and fast readouts as required by HTS.
The assay buffer “AB” contains 50 mM Hepes pH8.0, 10 mM MgCl2, 50 mM KCl, 0.012% Triton-X100. The following components are added in a white polystyrene Costar plate up to a final volume of 30 μL: 3 μL DMSO, or inhibitor dissolved in DMSO and 27 μL DltA enzyme and DTT in AB. After 30 min of pre-incubation at room temperature, 30 μL of Substrates mix in AB are added in each well to a final volume of 60 μL. This reaction mixture is then composed of 10 nM DltA (produced in house from S. agalactiae), 0.5 mM D-Alanine (Sigma), 0.5 μM ATP (Sigma) and 1 mM DTT (Biochemika) in assay buffer. After 90 min of incubation at room temperature, 30 μL of the revelation mix are added to a final volume of 90 μL, including the following constituents at the respective final concentrations: 2 nM luciferase (Sigma), 30 μM D-luciferin (Sigma), 100 μM N-acetylcysteamine (Aldrich). Luminescence intensity is immediately measured on an Analyst-HT (Molecular Devices) and converted into inhibition percentages. For IC50 (Inhibitory Concentration 50%) determinations, the inhibitor is added at 6 to 10 different concentrations, and the related inhibitions are fitted to a classical langmuir equilibrium model using XLFIT (IDBS).
The assay buffer “AB” contains 50 mM Hepes pH8.0, 10 mM MgCl2, 50 mM KCl, 0.012% Triton-X100. The following components are added in a black polystyrene Costar plate up to a final volume of 50 μL: 5 μL DMSO, or inhibitor dissolved in DMSO and 45 μL DltA enzyme and DTT in AB. After 30 min of pre-incubation at room temperature, 50 μL of Substrates-revelation mix in AB are added in each well to a final volume of 100 μL. This reaction mixture is then composed of 5 nM DltA (produced in house from S. agalactiae), 0.5 mM D-Alanine (Sigma), 10 μM ATP (Sigma), 1 mM DTT (Biochemika), 10 nM Adenylate kinase (produced in house), 5 u/mL Pyruvate Kinase (Sigma), 50 μM phosphoenolpyruvate (Sigma), 5 u/mL Lactate deshydrogenase (Sigma) and 3 μM NADH (Sigma) in assay buffer. Fluorescence intensity of NADH (λex=360 nm, λem=520 nm) is immediately measured kinetically by a Fluostar Optima (BMG). Inhibition percentages are derived from fitted initial velocities. For IC50 determinations, the inhibitor is added at 6 to 10 different concentrations, and the related inhibitions are fitted to a classical langmuir equilibrium model using XLFIT (IDBS). FIG. 2 represents the data obtained using this method.
The capacity of compounds to inhibit DltA enzymatic activity was assessed using the DltA HTS assays described in method 1.
Broadly, the IC50 is the midpoint of a concentration-inhibition curve. Compound `CS(=O)(=O)Nc1ccc(-c2cnc3c(NCCCO)nc4cc(C(F)(F)F)ccc4n23)cc1` [Example 23, N-{4-[4-(3-Hydroxy-propylamino)-7-trifluoromethyl-imidazo[1,2-a]quinoxalin-1-yl]phenyl}-methanesulfonamide Sodium salt] returned an IC50 of 0.21 µM.

The same assay, now with this note: Table 1; DltA inhibition, HTS assays of method 1; read-out: IC50.
Take `OCCCNc1nc2cc(C(F)(F)F)ccc2n2ccnc12` [Example 1, 3-{[7-(trifluoromethyl)imidazo[1,2-a]quinoxalin-4-yl]amino}propan-1-ol]: the IC50 was 3.2 µM. Same read-out and setting: then `OCCCNc1nc2cc(C(F)(F)F)ccc2n2c(Br)cnc12` [Example 2, 3-{[1-bromo-7-(trifluoromethyl)imidazo[1,2-a]quinoxalin-4 yl]amino}propan-1-ol], with 2.5 µM; and `OCCCNc1nc2cc(C(F)(F)F)ccc2n2c(I)cnc12` [Example 3, 3-{[1-iodo-7-(trifluoromethyl)imidazo[1,2-a]quinoxalin-4-yl]amino}propan-1-ol], with 0.62 µM; and `OCCCNc1nc2cc(Br)ccc2n2ccnc12` [Example 4, 3-(7-bromo-imidazo[1,2-a]quinoxalin-4-ylamino)-propan-1-ol], with 6.6 µM. Still for that read-out and setting: the result for `OCCCNc1nc2cc(-c3ccccc3C(F)(F)F)ccc2n2ccnc12` [Example 5, 3-({7-[2-(trifluoromethyl)phenyl]imidazo[1,2-a]quinoxalin-4-yl}amino)propan-1-ol] reads 0.56 µM.

For `CCSc1ccc2c(c1)nc(NCCCO)c1nccn12` [Example 6], the IC50 was found to be 6.5 µM. On the same count and under the same terms, the result for `OCCCNc1nc2cc(OC(F)(F)F)ccc2n2ccnc12` [Example 7, 3-{[7-(trifluoromethoxy)imidazo[1,2-a]quinoxalin-4-yl]amino}propan-1-ol] reads 2.2 µM. Regarding `CC(=O)Nc1cccc(-c2cnc3c(NCCCO)nc4cc(C(F)(F)F)ccc4n23)c1` [Example 8, N-{3-[4-(3-Hydroxy-propylamino)-7-trifluoromethyl-imidazo[1,2-a]quinoxalin-1-yl]-phenyl}-acetamide], the IC50 came to 0.12 µM.

For `NS(=O)(=O)c1cccc(-c2cnc3c(NCCCO)nc4cc(C(F)(F)F)ccc4n23)c1` [Example 9, 3-{4-[(3-hydroxypropyl)amino]-7-(trifluoromethyl)imidazo[1,2-a]quinoxalin-1-yl}benzenesulfonamide], the IC50 was 0.69 µM. Still for that read-out and setting: the result for `COc1ccc(-c2cnc3c(NCCCO)nc4cc(C(F)(F)F)ccc4n23)cc1` [Example 10, 3-{[1-(4-methoxyphenyl)-7-(trifluoromethyl)imidazo[1,2-a]quinoxalin-4-yl]amino}propan-1-ol] reads 0.23 µM.

In the case of `OCCCNc1nc2cc(C(F)(F)F)ccc2n2c(-c3ccccc3)cnc12` [Example 11, 3-{[1-phenyl-7-(trifluoromethyl)imidazo[1,2-a]quinoxalin-4-yl]amino}propan-1-ol], the IC50 stood at 0.73 µM. The same measure, in the same setting: the result for `CS(=O)(=O)Nc1ccc(-c2cnc3c(NCCCO)nc4cc(C(F)(F)F)ccc4n23)cc1` [Example 12, N-{4-[4-(3-Hydroxy-propylamino)-7-trifluoromethyl-imidazo[1,2-a]quinoxalin-1-yl]-phenyl}-methanesulfonamide] reads 0.087 µM; that for `COc1ccc(-c2cnc3c(NCCCO)nc4cc(C(F)(F)F)ccc4n23)cn1` [Example 13, 3-{[1-(6-methoxypyridin-3-yl)-7-(trifluoromethyl)imidazo[1,2-a]quinoxalin-4-yl]amino}propan-1-ol], 0.48 µM. Turning to `OCCCNc1nc2cc(C(F)(F)F)ccc2n2c(-c3ccc(N4CCOCC4)cc3)cnc12` [Example 14, 3-{[1-(4-N-morpholinophenyl)-7-(trifluoromethyl)imidazo[1,2-a]quinoxalin-4-yl]amino}propan-1-ol], the IC50 came to 0.46 µM. Turning to `CNC(=O)c1ccc(-c2cnc3c(NCCCO)nc4cc(C(F)(F)F)ccc4n23)cc1` [Example 15, 4-{4-[(3-hydroxypropyl)amino]-7-(trifluoromethyl)imidazo[1,2-a]quinoxalin-1-yl}-N-methylbenzamide], the IC50 is 0.2 µM. For `OCCCNc1nc2cc(C(F)(F)F)ccc2n2c(-c3cn[nH]c3)cnc12` [Example 17, 3-{[1-(1H-pyrazol-4-yl)-7-(trifluoromethyl)imidazo[1,2-a]quinoxalin-4-yl]amino}propan-1-ol], the IC50 amounted to 0.51 µM. Same read-out and setting: then `NCc1ccc(-c2cnc3c(NCCCO)nc4cc(C(F)(F)F)ccc4n23)cc1` [Example 18, 3-({1-[4-(aminomethyl)phenyl]-7-(trifluoromethyl)imidazo[1,2-a]quinoxalin-4-yl}amino)propan-1-ol], with 0.24 µM; and `Nc1ncc(-c2cnc3c(NCCCO)nc4cc(C(F)(F)F)ccc4n23)cn1` [Example 20, 3-{[1-(2-aminopyrimidin-5-yl)-7-(trifluoromethyl)imidazo[1,2-a]quinoxalin-4-yl]amino}propan-1-ol], with 0.86 µM. Take `COc1cc(-c2cnc3c(NCCCO)nc4cc(C(F)(F)F)ccc4n23)ccc1N` [Example 21]: the IC50 stood at 0.27 µM. Regarding `C=Cc1cnc2c(NCCCO)nc3cc(C(F)(F)F)ccc3n12` [Example 22, 3-{[7-(trifluoromethyl)-1-vinylimidazo[1,2-a]quinoxalin-4-yl]amino}propan-1-ol], the half-inhibitory concentration (IC50) came out at 1 µM. On to `COc1ccc(-n2cnc3c(NCCCO)nc4cc(C(F)(F)F)ccc4c32)cc1` [Example 24, 3-[1-(4-Methoxy-phenyl)-7-trifluoromethyl-1H-imidazo[4,5-c]quinolin-4-ylamino]-propan-1-ol], for which the IC50 is 3.9 µM. `Cn1cnc2c(NCCCO)nc3cc(C(F)(F)F)ccc3c21` [Example 25, 3-{[1-methyl-7-(trifluoromethyl)-1H-imidazo[4,5-c]quinolin-4-yl]amino}propan-1-ol]: the IC50 stood at 17 µM.

As for `OCCCNc1nc2cc(C(F)(F)F)ccc2c2c1ncn2[C@H]1CC[C@H](O)CC1` [Example 26, 4-[4-(3-hydroxy-propylamino)-7-trifluoromethyl-imidazo[4,5-c]quinolin-1-yl]-cyclohexanol], the IC50 turned out to be 20 µM. As to `OCCCNc1nc2cc(C(F)(F)F)ccc2n2c(C3=CCNCC3)cnc12` [Example 27, 3-[1-(1,2,3,6-tetrahydro-pyridin-4-yl)-7-trifluoromethyl-imidazo[1,2-a]quinoxalin-4-ylamino]-propan-1-ol], the IC50 is 2.6 µM. Still for that read-out and setting: the result for `CC(=O)N1CC=C(c2cnc3c(NCCCO)nc4cc(C(F)(F)F)ccc4n23)CC1` [Example 28, 1-{4-[4-(3-hydroxy-propylamino)-7-trifluoromethyl-imidazo[1,2-a]quinoxalin-1-yl]-3,6-dihydro-2H-pyridin-1-yl}-ethanone] reads 0.65 µM. For `CS(=O)(=O)N1CC=C(c2cnc3c(NCCCO)nc4cc(C(F)(F)F)ccc4n23)CC1` [Example 29, 3-[1-(1-methanesulfonyl-1,2,3,6-tetrahydro-pyridin-4-yl)-7-trifluoromethyl-imidazo[1,2-a]quinoxalin-4-ylamino]-propan-ol], the IC50 came to 0.41 µM.

Source of the values: patent US8513250B2 (Laboratoire Biodim, priority 2007, dated 2013).
